Data taken from ChEMBL document CHEMBL1201862, “PubChem BioAssay data set” (2004).
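Assay format: 96-well plates, 48-hour exposure. GI50 = concentration required for 50% inhibition of growth.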 The source made the active and inactive calls. Cut-off read from the data, not from the text of the source: active = GI50 up to about 1.1 µM and inactive = higher.

How the values were obtained:
Experiment in all cases: NCI anticancer screen, dose series, 48 h
RXF 393 = test system: RXF 393
IGROV-1 = test system: IGROV-1
ACHN = test system: ACHN
SK-OV-3 = test system: SK-OV-3
SK-MEL-2 = test system: SK-MEL-2
U-251 = test system: U-251
HCT-15 = test system: HCT-15
SK-MEL-5 = test system: SK-MEL-5
COLO 205 = test system: COLO 205
CCRF-CEM = test system: CCRF-CEM
NCI-H460 = test system: NCI-H460
RPMI-8226 = test system: RPMI-8226
HOP-62 = test system: HOP-62
TK-10 = test system: TK-10
OVCAR-8 = test system: OVCAR-8
A549 = test system: A549
SK-MEL-28 = test system: SK-MEL-28
DU-145 = test system: DU-145

CCCCCCCCCCCCCCCCCCCCCC(=O)Nc1ccn(C2OC(CO)C(O)C2O)c(=O)n1 (stereo unspecified)
GI50 (RXF 393): > 100 µM (inactive)
GI50 (IGROV-1): > 68.9 µM (inactive)
GI50 (ACHN): 5.2 µM (inactive)
GI50 (SK-OV-3): > 54.6 µM (inactive)
GI50 (SK-MEL-2): > 100 µM (inactive)
GI50 (U-251): > 92.9 µM (inactive)
GI50 (HCT-15): > 96.2 µM
GI50 (SK-MEL-5): 29 µM (inactive)
GI50 (COLO 205): > 54.2 µM (inactive)
GI50 (CCRF-CEM): 0.191 µM (active)
GI50 (NCI-H460): 2.32 µM (inactive)
GI50 (RPMI-8226): > 100 µM (inactive)
GI50 (HOP-62): 3.11 µM (inactive)
GI50 (TK-10): > 100 µM (inactive)
GI50 (OVCAR-8): 12.4 µM (inactive)
GI50 (A549): 4.68 µM (inactive)
GI50 (SK-MEL-28): > 100 µM (inactive)

O=C1CCCC2COc3ccc(O)c1c32 (stereo unspecified)
GI50 (RXF 393): > 100 µM (inactive)
GI50 (IGROV-1): > 100 µM (inactive)
GI50 (ACHN): > 100 µM (inactive)
GI50 (SK-OV-3): > 100 µM (inactive)
GI50 (SK-MEL-2): > 100 µM (inactive)
GI50 (U-251): > 100 µM (inactive)
GI50 (HCT-15): > 100 µM
GI50 (SK-MEL-5): > 100 µM (inactive)
GI50 (COLO 205): > 100 µM (inactive)
GI50 (CCRF-CEM): > 100 µM (inactive)
GI50 (NCI-H460): > 100 µM (inactive)
GI50 (RPMI-8226): > 100 µM (inactive)
GI50 (HOP-62): > 100 µM (inactive)
GI50 (TK-10): > 100 µM (inactive)
GI50 (OVCAR-8): > 100 µM (inactive)
GI50 (A549): > 100 µM (inactive)
GI50 (SK-MEL-28): > 100 µM (inactive)

COc1ccccc1/C=C/C(=O)c1sc(-c2cccnc2)nc1C
GI50 (RXF 393): 27.9 µM (inactive)
GI50 (IGROV-1): > 100 µM (inactive)
GI50 (ACHN): > 100 µM (inactive)
GI50 (SK-OV-3): > 100 µM (inactive)
GI50 (SK-MEL-2): > 100 µM (inactive)
GI50 (U-251): > 100 µM (inactive)
GI50 (HCT-15): > 100 µM
GI50 (SK-MEL-5): 47.3 µM (inactive)
GI50 (COLO 205): > 100 µM (inactive)
GI50 (CCRF-CEM): 84.3 µM (inactive)
GI50 (NCI-H460): > 100 µM (inactive)
GI50 (RPMI-8226): 26.3 µM (inactive)
GI50 (HOP-62): > 100 µM (inactive)
GI50 (TK-10): > 100 µM (inactive)
GI50 (OVCAR-8): > 100 µM (inactive)
GI50 (A549): > 100 µM (inactive)
GI50 (SK-MEL-28): > 100 µM (inactive)

N#Cc1nc(-c2cccnc2)oc1N
GI50 (RXF 393): > 100 µM (inactive)
GI50 (IGROV-1): > 100 µM (inactive)
GI50 (ACHN): > 100 µM (inactive)
GI50 (SK-OV-3): > 100 µM (inactive)
GI50 (SK-MEL-2): > 100 µM (inactive)
GI50 (U-251): > 100 µM (inactive)
GI50 (HCT-15): > 100 µM
GI50 (SK-MEL-5): > 100 µM (inactive)
GI50 (COLO 205): > 100 µM (inactive)
GI50 (CCRF-CEM): > 100 µM (inactive)
GI50 (NCI-H460): > 100 µM (inactive)
GI50 (RPMI-8226): > 100 µM (inactive)
GI50 (HOP-62): > 100 µM (inactive)
GI50 (TK-10): > 100 µM (inactive)
GI50 (SK-MEL-28): > 100 µM (inactive)
GI50 (DU-145): > 100 µM (inactive)

O=c1c(-c2cccc3ccccc23)c(-c2cccc3ccccc23)c1=O
GI50 (RXF 393): 4.69 µM (inactive)
GI50 (IGROV-1): 2.6 µM (inactive)
GI50 (ACHN): 0.716 µM (active)
GI50 (SK-OV-3): 10.8 µM (inactive)
GI50 (SK-MEL-2): 2.29 µM (inactive)
GI50 (U-251): 3.31 µM (inactive)
GI50 (HCT-15): 2.42 µM
GI50 (SK-MEL-5): 3 µM (inactive)
GI50 (COLO 205): 0.363 µM (active)
GI50 (CCRF-CEM): 0.395 µM (active)
GI50 (NCI-H460): 0.586 µM (active)
GI50 (RPMI-8226): 0.736 µM (active)
GI50 (HOP-62): 3.57 µM (inactive)
GI50 (TK-10): 15.1 µM (inactive)
GI50 (OVCAR-8): 2.81 µM (inactive)
GI50 (A549): 0.741 µM (active)
GI50 (SK-MEL-28): 10.6 µM (inactive)

Cc1ccc(NC(=O)C(=O)CC(=O)C2CCOC2=O)c(C)c1 (stereo unspecified)
GI50 (RXF 393): > 100 µM (inactive)
GI50 (IGROV-1): > 100 µM (inactive)
GI50 (ACHN): > 100 µM (inactive)
GI50 (SK-OV-3): > 100 µM (inactive)
GI50 (SK-MEL-2): > 100 µM (inactive)
GI50 (U-251): > 100 µM (inactive)
GI50 (HCT-15): > 100 µM
GI50 (SK-MEL-5): > 100 µM (inactive)
GI50 (COLO 205): > 100 µM (inactive)
GI50 (CCRF-CEM): > 100 µM (inactive)
GI50 (NCI-H460): > 100 µM (inactive)
GI50 (RPMI-8226): > 100 µM (inactive)
GI50 (HOP-62): > 100 µM (inactive)
GI50 (TK-10): > 100 µM (inactive)
GI50 (OVCAR-8): > 100 µM (inactive)
GI50 (A549): > 100 µM (inactive)
GI50 (SK-MEL-28): > 100 µM (inactive)
